Source: PMC6791383, “A side-by-side evaluation of [^18F]FDOPA enantiomers for non-invasive detection of neuroendocrine tumors by positron emission tomography” (Oncotarget, 2019)
Where “and” joins values, the source holds several entries; their conditions need not be identical. Identical values can stand only once.

Columns and labels:
LAT1 [1] = system: LAT1; design: method as in PMID 21770378, PMID 11901210, PMID 25205473, PMID 30048132; details: cited from earlier work
COLO-320 xenografts [2] = test: In vivo PET-CT quantitative image analysis, COLO-320 xenografts; details: COLO-320 tumors, NSG mice, 9MBq
Procedure: (§1) All animal studies were carried out according to regulations set forth and approved by the Johns Hopkins Animal Care and Use Committee. Female, 6- to 8-weeks-old immunodeficient NOD scid gamma (NSG) mice were subcutaneously inoculated with 1 million PC12, STC-1 or COLO-320 cells in […] of Hank’s balanced salt solution in the top flank. Tumors of 4–6 mm in diameter (typically 14-21 days post inoculation) were utilized for in vivo imaging or ex vivo biodistribution studies.
(§2) Mice (n=4) were injected with 9MBq (250μCi) of each tracer in 150μL of saline intravenously and anesthetized with 3% isoflurane prior to being placed on the scanner bed. Mice were kept warm with an external light source and maintained at 1% isoflurane levels while being scanned. PET imaging (2 beds; 10 min per bed) was carried out using an ARGUS small-animal PET/CT scanner (Sedecal). A CT scan (512 projections) was obtained at the end of each PET scan for anatomical co-registration. For in vivo blocking experiments, mice were injected with 10meq of LAT1 inhibitor. PET data were reconstructed using the 2-dimensional ordered subsets-expectation maximization algorithm (2D-OSEM) and corrected for dead time and radioactive decay. Data visualization and image generation were carried out using Amira 2019.1 (ThermoFisher Scientific).
(§3) Quantitative in vivo image analysis was carried out in AMIDE (SourceForge) 1.0.4 utilizing ellipsoid region-of-interest volume integrations with 3 slices entailing a depth of 1.9 mm per slice. The %ID per cc values were calculated based on a calibration factor obtained from a phantom (known radioactive quantity in a known volume).

[3] = system: NET xenografts (STC-1, PC12, COLO-320); test: Ex vivo biodistribution, across all NET mouse models; assay type: in vivo, mice; details: for brain accumulation, average in all NET mice: average over STC-1, COLO-320 and PC12 mice
Procedure: as §1
(§4) Mice (n=5 per group) were intravenously injected with 1.5MBq (40μCi) of each tracer in 150μL of saline. Ex vivo biodistribution studies were performed at 30min and 120min time points after tracer administration. Blood, liver, spleen, heart, lungs, kidneys, small intestines, stomach, muscle, fat, bone, bladder, brain and tumor tissues were retrieved, weighed, and counted in an automated gamma counter (1282 Compugamma CS). Percentage injected dose per gram (%ID/g) values were calculated based on normalization to external standards, counted in triplicate, and accounted for signal-decay correction.

PC12 cells = test: In vitro uptake (binding) assay in PC12 cells; assay type: cell-based; details: 30mins incubation, 1 million cells
Procedure: (§5) Both [^18F]FDOPA enantiomers were initially assessed in vitro in all NET cells.
(§6) In vitro binding assays were carried out, in triplicate, in PBS with 0.5% FBS, for 30mins at ambient temperatures using 1 million cells and repeated three times. Blocking studies were carried out using 10meq of the commercial LAT1 inhibitor, 2-Aminobicyclo[2.2.1]heptane-2-carboxylic acid (TOCRIS, MN, USA). Following incubation with each tracer, cells were rinsed three times with cold PBS prior to being counted on an automated gamma counter (1282 Compugamma CS; Pharmacia/LKBNuclear, Inc.) along with external standards. Obtained counts were converted into percentage incubated dose per million cells based on normalization to external standards. Experiments were performed in triplicate and repeated three times.

LAT1 [4] = test: In vivo PET-CT blocking by BCH in NET mouse models; design: species or system mice; details: all NET mouse models (PC12, STC-1, COLO-320), 10meq LAT1 inhibitor
Procedure: as §2, §3

STC-1 xenografts [5] = test: In vivo PET-CT quantitative image analysis, STC-1 xenografts; details: STC-1 tumors, NSG mice, 9MBq
Procedure: as §1, §2, §3

COLO-320 xenografts [6] = test: Ex vivo biodistribution in NSG mice bearing COLO-320 xenografts; details: for small intestines retention, fold higher than tumor uptake: COLO-320 mice
Procedure: as §1, §4

PC12 xenografts [7] = test: Ex vivo biodistribution in NSG mice bearing PC12 xenografts; details: PC12 xenograft NSG mice, 1.5MBq i.v.
Procedure: as §1, §4

STC-1 cells = test: In vitro uptake (binding) assay in STC-1 cells; assay type: cell-based; details: 30mins incubation, 1 million cells, % incubated dose/million cells
Procedure: as §5, §6

PC12 xenografts [8] = test: In vivo PET-CT quantitative image analysis, PC12 xenografts; details: PC12 tumors, NSG mice, 9MBq
Procedure: as §1, §2, §3

STC-1 xenografts [9] = test: Ex vivo biodistribution in NSG mice bearing STC-1 xenografts; details: STC-1 xenograft NSG mice, 1.5MBq i.v.
Procedure: as §1, §4

[10] = COLO-320 xenograft NSG mice, 30min p.i., 1.5MBq i.v.
[11] = COLO-320 xenograft NSG mice, 120min p.i., 1.5MBq i.v.

## N[C@H](Cc1ccc(O)c(O)c1)C(=O)O [D-DOPA, 3,4-dihydroxy-D-phenylalanine]
LAT1 [1]
  IC50: 46 ± 23 µM

## N[C@@H](Cc1cc(O)c(O)cc1[18F])C(=O)O [L-[^18F]FDOPA, 3,4-dihydroxy-6-[^18F]fluoro-L-phenylalanine]
COLO-320 xenografts [2]; 30min post i.v. injection
  tumor uptake, quantitative PET image analysis: 11.99±0.50 %ID/cc
COLO-320 xenografts [2]; 120min post i.v. injection
  tumor uptake, quantitative PET image analysis: 15.10±1.30 %ID/cc
[3]; 30min p.i.
  brain accumulation, average in all NET mice: 2.21±0.17 %ID/g
[3]; 120min p.i.
  brain accumulation, average in all NET mice: 1.22±0.16 %ID/g
[3]; STC-1 vs COLO-320 tumors
  tumor uptake, fold higher in STC-1 than in COLO-320 tumors: > 2 fold
PC12 cells
  in vitro uptake: 19.73±0.71 % (incubated dose/million cells)
LAT1 [4]
  tumor uptake after in vivo blocking by BCH: significantly reduced
STC-1 xenografts [5]; 30min post i.v. injection
  tumor uptake, quantitative PET image analysis: 33.29±1.66 %ID/cc
STC-1 xenografts [5]; 120min post i.v. injection
  tumor uptake, quantitative PET image analysis: 10.38±1.31 %ID/cc
COLO-320 xenografts [6]; 30min
  small intestines retention, fold higher than tumor uptake: 5 fold
COLO-320 xenografts [6]; 120min
  small intestines retention, fold higher than tumor uptake: 3 fold
COLO-320 xenografts [6]; [10]
  Biodistribution, Bladder: 8.38 %ID/g
  Biodistribution, Blood: 5.53 %ID/g
  Biodistribution, Bone: 5.05 %ID/g
  Biodistribution, Brain: 2.58 %ID/g
  Biodistribution, Fat: 0.95 %ID/g
  Biodistribution, Heart: 3.85 %ID/g
  Biodistribution, Kidneys: 13.60 %ID/g
  Biodistribution, Liver: 10.68 %ID/g
  Biodistribution, Lungs: 6.11 %ID/g
  Biodistribution, Muscle: 5.27 %ID/g
  Biodistribution, Pancreas: 57.82 %ID/g
  Biodistribution, Small Intestines: 15.72 %ID/g
  Biodistribution, Spleen: 5.72 %ID/g
  Biodistribution, Stomach: 11.27 %ID/g
  Biodistribution, Tumor: 5.15 %ID/g
COLO-320 xenografts [6]; [11]
  Biodistribution, Bladder: 14.73 %ID/g
  Biodistribution, Blood: 2.44 %ID/g
  Biodistribution, Bone: 7.40 %ID/g
  Biodistribution, Brain: 1.28 %ID/g
  Biodistribution, Fat: 1.76 %ID/g
  Biodistribution, Heart: 2.74 %ID/g
  Biodistribution, Kidneys: 4.16 %ID/g
  Biodistribution, Liver: 2.85 %ID/g
  Biodistribution, Lungs: 2.55 %ID/g
  Biodistribution, Muscle: 4.40 %ID/g
  Biodistribution, Pancreas: 37±5.43 %ID/g and 37.13 %ID/g
  Biodistribution, Small Intestines: 8.66 %ID/g
  Biodistribution, Spleen: 6.72 %ID/g
  Biodistribution, Stomach: 7.99 %ID/g
PC12 xenografts [7]; 30min p.i.
  Biodistribution, Bladder: 7.24 %ID/g
  Biodistribution, Blood: 4.14 %ID/g
  Biodistribution, Bone: 3.86 %ID/g
  Biodistribution, Brain: 1.90 %ID/g
  Biodistribution, Fat: 1.25 %ID/g
  Biodistribution, Heart: 2.96 %ID/g
  Biodistribution, Kidneys: 14.60 %ID/g
  Biodistribution, Liver: 8.59 %ID/g
  Biodistribution, Lungs: 4.57 %ID/g
  Biodistribution, Muscle: 4.70 %ID/g
  Biodistribution, Pancreas: 50.08 %ID/g
  Biodistribution, Small Intestines: 11.50 %ID/g
  Biodistribution, Spleen: 4.30 %ID/g
  Biodistribution, Stomach: 9.04 %ID/g
PC12 xenografts [7]; 120min p.i.
  Biodistribution, Bladder: 14.06 %ID/g
  Biodistribution, Blood: 2.19 %ID/g
  Biodistribution, Bone: 7.19 %ID/g
  Biodistribution, Brain: 1.31 %ID/g
  Biodistribution, Fat: 1.78 %ID/g
  Biodistribution, Heart: 2.45 %ID/g
  Biodistribution, Kidneys: 4.84 %ID/g
  Biodistribution, Liver: 3.01 %ID/g
  Biodistribution, Lungs: 2.43 %ID/g
  Biodistribution, Muscle: 3.48 %ID/g
  Biodistribution, Pancreas: 36.66 %ID/g
  Biodistribution, Small Intestines: 10.02 %ID/g
  Biodistribution, Spleen: 6.11 %ID/g
  Biodistribution, Stomach: 8.28 %ID/g
STC-1 cells
  in vitro uptake: 2.97±0.07%
PC12 xenografts [8]; 30min post i.v. injection
  tumor uptake, quantitative PET image analysis: 35.73±2.50 %ID/cc
PC12 xenografts [8]; 120min post i.v. injection
  tumor uptake, quantitative PET image analysis: 18.82±1.55 %ID/cc
STC-1 xenografts [9]; 30min p.i.
  Biodistribution, Bladder: 5.15 %ID/g
  Biodistribution, Blood: 3.94 %ID/g
  Biodistribution, Bone: 3.09 %ID/g
  Biodistribution, Brain: 2.16 %ID/g
  Biodistribution, Fat: 1.34 %ID/g
  Biodistribution, Heart: 2.72 %ID/g
  Biodistribution, Kidneys: 8.90 %ID/g
  Biodistribution, Liver: 4.87 %ID/g
  Biodistribution, Lungs: 4.13 %ID/g
  Biodistribution, Muscle: 3.63 %ID/g
  Biodistribution, Pancreas: 44.22 %ID/g
  Biodistribution, Small Intestines: 16.04±2.47 %ID/g and 16.43 %ID/g
  Biodistribution, Spleen: 3.98 %ID/g
  Biodistribution, Stomach: 8.97 %ID/g
  Biodistribution, Tumor: 11.06 %ID/g
STC-1 xenografts [9]; 120min p.i.
  Biodistribution, Bladder: 8.80 %ID/g
  Biodistribution, Blood: 1.47 %ID/g
  Biodistribution, Bone: 5.40 %ID/g
  Biodistribution, Brain: 1.07 %ID/g
  Biodistribution, Fat: 0.78 %ID/g
  Biodistribution, Heart: 2.34 %ID/g
  Biodistribution, Kidneys: 4.00 %ID/g
  Biodistribution, Liver: 1.73 %ID/g
  Biodistribution, Lungs: 1.89 %ID/g
  Biodistribution, Muscle: 2.75 %ID/g
  Biodistribution, Pancreas: 20±0.89 %ID/g and 20.71 %ID/g
  Biodistribution, Small Intestines: 5.08 %ID/g
  Biodistribution, Spleen: 6.55 %ID/g
  Biodistribution, Stomach: 6.83 %ID/g
  Biodistribution, Tumor: 6.98 %ID/g

## N[C@@H](Cc1ccc(O)c(O)c1)C(=O)O [L-DOPA, 3,4-dihydroxy-L-phenylalanine]
LAT1 [1]
  IC50: 69 ± 29 µM
